Bridge positions count the residues as written; N and C are the ends. Square brackets hold non-standard residues; d marks the D form. Peptide text beside a SMILES is read from it. Chg = N[C@H](C(=O)O)C1CCCCC1
Experiments:
B. cereus = format: cell-based; conditions: pH 7.2
Method: (§1) The experiments described above characterizing the activity of granulysin peptides G1-G18 relied on counting bacterial colonies on plates. This assay is quite labor intensive and would not allow evaluation of many different compounds on a number of different microbes. Therefore, we optimized an assay in which the entire procedure could be completed in a single microtiter well. Briefly, peptides are diluted in 10 mM phosphate buffer, pH 7.2 supplemented with 0.03% LB (J. Sambrook, D. W. Russell, Molecular Cloning: A Laboratory Manual (Cold Spring Harbor Laboratory Press, New York, ed. 3, 2001) pg. A2.2, Retrieved from http://openwetware.org/wiki/LB) and 25 μl is added to microtiter wells. Bacteria (25 μl) are added (˜5×10^6 colony forming units/ml) in the same buffer. After a 3-hour incubation at 37° C., 150 μl of LB is added and the plates are incubated overnight. The OD at 600 nm is read on an ELISA plate reader. The minimum inhibitory concentration (MIC) is the lowest concentration allowing no bacterial growth. The IC50 is the concentration of peptide that results in 50% growth compared to the medium.
(§2) We now describe additional peptides and their activity. The peptides have been designed, synthesized, and have been tested for lysis of E. coli and S. typhimurium (gram negative bacteria), B. cereus (gram positive bacterium). Results are shown in Table 2 along with the amino acid sequence of the peptide. Changes from the naturally occurring sequence are underlined. In general, the desired result is lysis of bacteria at low concentration (<1 μM).
(§3) In Table 2, Columns 2-7 are the MIC and IC50 (concentration required for 50% inhibition of growth) for each organism (E. coli, Salmonella, and B. cereus). The MIC (minimum inhibitory concentration) was determined as described above, in a multiwell plate assay. […] L-isomer amino acids are designated by capital letters while D-isomer amino acids are designated by lower case letters.

E. coli DH5a = format: cell-based; conditions: DH5a, pH 7.2
Method: as §1, §2, §3

Salmonella = format: cell-based, S. typhimurium; conditions: pH 7.2
Method: as §1, §2, §3

Row | SMILES | B. cereus MIC (B. cereus) | IC50 (B. cereus) | E. coli DH5a MIC (E. coli DH5a) | IC50 (E. coli DH5a) | IC50 (Salmonella) | Salmonella MIC (Salmonella)
1 | CSCC[C@H](NC(=O)[C@H](Cc1ccccc1)NC(=O)[C@H](CCCCN)NC(=O)[C@H](CCCCN)NC(=O)[C@H](CO)NC(=O)[C@@H](NC(=O)[C@H](CCCCN)NC(=O)[C@H](CCCCN)NC(=O)[C@H](CO)NC(=O)CNC(=O)[C@H](CCCCN)NC(=O)[C@H](CCCCN)NC(=O)[C@H](CCSC)NC(=O)[C@H](Cc1ccccc1)NC(=O)[C@H](CCCCN)NC(=O)[C@H](CCCCN)NC(=O)[C@H](CO)NC(=O)[C@@H](NC(=O)[C@H](CCCCN)NC(=O)[C@@H](N)CCCCN)C(C)C)C(C)C)C(=O)N[C@@H](CCCCN)C(=O)N[C@@H](CCCCN)C(=O)O [Peptide G11.15] | >10 µM | 5850 nM | 1.38 µM | 800 nM | 410 nM | 0.7 µM
2 | CSCC[C@@H](NC(=O)[C@@H](Cc1ccccc1)NC(=O)[C@@H](CCCNC(=N)N)NC(=O)[C@@H](CCCNC(=N)N)NC(=O)[C@@H](CO)NC(=O)[C@H](NC(=O)[C@@H](CCCNC(=N)N)NC(=O)[C@H](N)CCCNC(=N)N)C(C)C)C(=O)N[C@H](CCCNC(=N)N)C(=O)N[C@H](CCCNC(=N)N)C(=O)O [Peptide G11.24, rrvsrrfmrr] (H-[dR][dR][dV][dS][dR][dR][dF][dM][dR][dR]-OH; N-terminus and C-terminus assumed) | >10 µM | > 10000 nM | 1.4 µM | 850 nM | 850 nM | 1.4 µM
3 | CSCC[C@H](NC(=O)[C@H](Cc1ccccc1)NC(=O)[C@@H](CCCNC(=N)N)NC(=O)[C@@H](CCCNC(=N)N)NC(=O)[C@H](CO)NC(=O)[C@H](NC(=O)[C@@H](CCCNC(=N)N)NC(=O)[C@@H](N)CCCNC(=N)N)C(C)C)C(=O)N[C@H](CCCNC(=N)N)C(=O)N[C@@H](CCCNC(=N)N)C(=O)N[C@@H](CC(=O)O)C(N)=O [Peptide G11.45, RrvSrrFMrRD] (H-R[dR][dV]S[dR][dR]FM[dR]RD-NH2; N-terminus assumed) | >10 µM | > 10000 nM | >10 µM | > 10000 nM | > 10000 nM | >10 µM
4 | CSCC[C@H](NC(=O)[C@H](Cc1ccccc1)NC(=O)[C@H](CCCNC(=N)N)NC(=O)[C@H](CCCNC(=N)N)NC(=O)[C@H](CO)NC(=O)[C@@H](NC(=O)[C@H](CCCNC(=N)N)NC(=O)[C@H](CCCNC(=N)N)NC(=O)[C@H](CS)NC(=O)[C@H](CS)NC(=O)[C@H](CCCNC(=N)N)NC(=O)[C@H](CCCNC(=N)N)NC(=O)[C@@H](NC(=O)[C@H](CO)NC(=O)[C@H](CCCNC(=N)N)NC(=O)[C@H](CCCNC(=N)N)NC(=O)[C@H](Cc1ccccc1)NC(=O)[C@H](CCSC)NC(=O)[C@H](CCCNC(=N)N)NC(=O)[C@@H](N)CCCNC(=N)N)C(C)C)C(C)C)C(=O)N[C@@H](CCCNC(=N)N)C(=O)N[C@@H](CCCNC(=N)N)C(=O)O [Peptide G11.48] (H-RRMFRRSVRRCCRRVSRRFMRR-OH; N-terminus and C-terminus assumed) | 5.7 µM | 3550 nM | >10 µM | 2100 nM | > 10000 nM | >10 µM

Second part, the compound after the results:

Row | B. cereus MIC (B. cereus) | IC50 (B. cereus) | E. coli DH5a MIC (E. coli DH5a) | IC50 (E. coli DH5a) | IC50 (Salmonella) | Salmonella MIC (Salmonella) | SMILES
5 | 0.7 µM | 400 nM | 0.61 µM | 420 nM | 410 nM | 0.7 µM | CSCC[C@@H]1NC(=O)[C@H](Cc2ccccc2)NC(=O)[C@H](CCCCN)NC(=O)[C@H](CCCCN)NC(=O)[C@H](CO)NC(=O)[C@H](C(C)C)NC(=O)[C@H](CCCCN)NC(=O)[C@H](CCCCN)NC(=O)[C@@H](N)CSSC[C@@H](C(N)=O)NC(=O)[C@H](CCCCN)NC(=O)[C@H](CCCCN)NC(=O)[C@H](CCSC)NC(=O)[C@H](Cc2ccccc2)NC(=O)[C@H](CCCCN)NC(=O)[C@H](CCCCN)NC(=O)[C@H](CO)NC(=O)[C@H](C(C)C)NC(=O)[C@H](CCCCN)NC(=O)[C@H](CCCCN)NC(=O)[C@H](CO)NC(=O)CNC(=O)[C@H](CCCCN)NC(=O)[C@H](CCCCN)NC1=O [G11.31 CYC] (H-CKKVSKKFMKKGSKKVSKKFMKKC-NH2; disulfide 1-24; N-terminus assumed)
6 | 5.7 µM | 3510 nM | 5.65 µM | 3400 nM | 880 nM | 1.4 µM | CSCC[C@H](NC(=O)[C@H](Cc1ccccc1)NC(=O)[C@H](CCCNC(=N)N)NC(=O)[C@H](CCCNC(=N)N)NC(=O)[C@@H](NC(=O)[C@@H](NC(=O)[C@H](CCCNC(=N)N)NC(=O)[C@@H](N)CCCNC(=N)N)C(C)C)C1CCCCC1)C(=O)N[C@@H](CCCNC(=N)N)C(=O)N[C@@H](CCCNC(=N)N)C(=O)O [Peptide G11.18, RRV-Chg-RRFMRR] (H-RRV[Chg]RRFMRR-OH; N-terminus and C-terminus assumed)
7 | 0.32 µM | 100 nM | 0.18 µM | 100 nM | 150 nM | 0.45 µM | CSCC[C@H](NC(=O)[C@H](Cc1ccccc1)NC(=O)[C@@H](CCCNC(=N)N)NC(=O)[C@@H](CCCNC(=N)N)NC(=O)[C@H](CO)NC(=O)[C@@H](NC(=O)[C@@H](CCCNC(=N)N)NC(=O)[C@@H](CCCNC(=N)N)NC(=O)[C@@H](CCCNC(=N)N)NC(=O)[C@@H](CCCNC(=N)N)NC(=O)[C@@H](CCCNC(=N)N)NC(=O)[C@@H](CCCNC(=N)N)NC(=O)[C@@H](CCCNC(=N)N)NC(=O)[C@H](CCC(N)=O)NC(=O)[C@H](CC(C)C)NC(=O)[C@H](CCCCN)NC(=O)[C@H](CO)NC(=O)[C@H](CO)NC(=O)[C@H](Cc1c[nH]cn1)NC(=O)[C@H](CC(=O)O)NC(=O)CNC(=O)CNC(=O)[C@H](CC(=O)O)NC(=O)CNC(=O)CNC(=O)[C@@H](N)CC(=O)O)C(C)C)C(=O)N[C@H](CCCNC(=N)N)C(=O)N[C@H](CCCNC(=N)N)C(=O)O [Peptide G11.47, DGGDGGDHSSKLQrrrrrrrVSrrFMrr] (H-DGGDGGDHSSKLQ[dR][dR][dR][dR][dR][dR][dR]VS[dR][dR]FM[dR][dR]-OH; N-terminus and C-terminus assumed)
8 | 0.35 µM | 210 nM | >10 µM | 8250 nM | > 10000 nM | >10 µM | CSCC[C@@H](NC(=O)[C@@H](Cc1ccccc1)NC(=O)[C@@H](CCCCN)NC(=O)[C@@H](CCCCN)NC(=O)[C@@H](CO)NC(=O)[C@H](NC(=O)[C@@H](CCCCN)NC(=O)[C@@H](CCCCN)NC(=O)[C@@H](CO)NC(=O)CNC(=O)[C@@H](CCCCN)NC(=O)[C@@H](CCCCN)NC(=O)[C@@H](CCSC)NC(=O)[C@@H](Cc1ccccc1)NC(=O)[C@@H](CCCCN)NC(=O)[C@@H](CCCCN)NC(=O)[C@@H](CO)NC(=O)[C@H](NC(=O)[C@@H](CCCCN)NC(=O)[C@H](N)CCCCN)C(C)C)C(C)C)C(=O)N[C@H](CCCCN)C(=O)N[C@H](CCCCN)C(=O)O [Peptide G11.54, kkvskkfmkkgskkvskkfmkk]
